Results reported in the NIST ThermoML archive (doi:10.1021/acs.jced.7b00543).
± gives the expanded uncertainty stated by the source.

Conditions: Capillary rise

CC(C)C [2-methylpropane]
Conditions | surface tension liquid-gas [mN/m]
280.34 K | 11.99 ± 0.21
283.22 K | 11.79 ± 0.21
285.45 K | 11.48 ± 0.21
288.02 K | 11.17 ± 0.21
290.14 K | 10.99 ± 0.2
293.53 K | 10.6 ± 0.2
296.42 K | 10.23 ± 0.2
299.37 K | 9.829 ± 0.2
302.08 K | 9.595 ± 0.2
305.41 K | 9.223 ± 0.2
307.43 K | 9.03 ± 0.2
310.75 K | 8.607 ± 0.2
313.15 K | 8.314 ± 0.2
315.62 K | 7.999 ± 0.2
318.22 K | 7.683 ± 0.2
320.46 K | 7.584 ± 0.2
323.41 K | 7.172 ± 0.2
325.44 K | 7.013 ± 0.2
327.83 K | 6.731 ± 0.2
329.85 K | 6.538 ± 0.2
330.18 K | 6.476 ± 0.2
332.56 K | 6.214 ± 0.2
335.58 K | 5.925 ± 0.2
338.1 K | 5.686 ± 0.2
340.42 K | 5.479 ± 0.2
342.74 K | 5.22 ± 0.2
345.39 K | 4.972 ± 0.2
347.26 K | 4.847 ± 0.2
350.12 K | 4.526 ± 0.2

C=C(F)C(F)(F)F [2,3,3,3-tetrafluoro-1-propene]
Conditions | surface tension liquid-gas [mN/m]
242.21 K | 13.25 ± 0.21
244.21 K | 12.98 ± 0.21
245.22 K | 12.84 ± 0.21
248.08 K | 12.45 ± 0.21
250.1 K | 12.18 ± 0.21
252.25 K | 11.9 ± 0.21
255.34 K | 11.49 ± 0.21
258.24 K | 11.11 ± 0.21
260.34 K | 10.83 ± 0.2
263.12 K | 10.47 ± 0.2
265.13 K | 10.21 ± 0.2
268.11 K | 9.828 ± 0.2
270.15 K | 9.568 ± 0.2
275.55 K | 8.889 ± 0.2
278.58 K | 8.512 ± 0.2
280.24 K | 8.307 ± 0.2
283.24 K | 7.94 ± 0.2
285.32 K | 7.688 ± 0.2
288 K | 7.364 ± 0.2
290.08 K | 7.117 ± 0.2
296.04 K | 6.415 ± 0.2
300.01 K | 5.956 ± 0.2
305.09 K | 5.382 ± 0.2
310.09 K | 4.829 ± 0.2
312.28 K | 4.591 ± 0.2
315.2 K | 4.279 ± 0.2
317.48 K | 4.038 ± 0.2
320.48 K | 3.726 ± 0.2
322.47 K | 3.523 ± 0.2
325.1 K | 3.259 ± 0.2
327.3 K | 3.041 ± 0.2
330.27 K | 2.752 ± 0.2
332.21 K | 2.568 ± 0.2
335.26 K | 2.284 ± 0.2
337.53 K | 2.077 ± 0.2
340.11 K | 1.85 ± 0.2
342.54 K | 1.64 ± 0.2
345.13 K | 1.425 ± 0.2
347.36 K | 1.244 ± 0.2
350.21 K | 1.023 ± 0.2
355.63 K | 0.637 ± 0.2
360.23 K | 0.349
362.34 K | 0.234
365 K | 0.108

F/C=C/C(F)(F)F [trans-1,3,3,3-tetrafluoropropene]
Conditions | surface tension liquid-gas [mN/m]
242.01 K | 15.66 ± 0.21
245.14 K | 15.23 ± 0.21
248.08 K | 14.82 ± 0.21
250.11 K | 14.54 ± 0.21
255.11 K | 13.85 ± 0.21
260.07 K | 13.18 ± 0.21
265.12 K | 12.51 ± 0.21
268.98 K | 12 ± 0.21
271.51 K | 11.67 ± 0.21
275.65 K | 11.13 ± 0.21
280.14 K | 10.55 ± 0.2
285.03 K | 9.923 ± 0.2
288.19 K | 9.525 ± 0.2
290.19 K | 9.275 ± 0.2
293.1 K | 8.913 ± 0.2
295.07 K | 8.67 ± 0.2
300.07 K | 8.059 ± 0.2
305.06 K | 7.46 ± 0.2
310.06 K | 6.873 ± 0.2
315.05 K | 6.304 ± 0.2
320.05 K | 5.724 ± 0.2
325.03 K | 5.171 ± 0.2
330.05 K | 4.621 ± 0.2
335.09 K | 4.087 ± 0.2
340.08 K | 3.565 ± 0.2
345.07 K | 3.094 ± 0.2
350.07 K | 2.589 ± 0.2
355.03 K | 2.132 ± 0.2
360.08 K | 1.605 ± 0.2
365.09 K | 1.171 ± 0.2
370.07 K | 0.761 ± 0.2
375.14 K | 0.395
380.09 K | 0.109
